Measured values reported in patent US5196427A, “3-aryl-4(3H) quinazolinone CCK antagonists and pharmaceutical formulations thereof” (Eli Lilly and Company, priority 1991, dated 1993).

Assays:
[1] = target: T1, Gastrin receptor (Cavia porcellus, UniProt H0VZC5); assay: Gastrin binding to guinea pig stomach mucosal membranes (125I-gastrin I); conditions: Mean ± SEM, n = 3
T1 construct: from tissue; host or cells: stomach fundus mucosal membranes of male Hartley guinea pigs
T1 sequence (H0VZC5 1-426): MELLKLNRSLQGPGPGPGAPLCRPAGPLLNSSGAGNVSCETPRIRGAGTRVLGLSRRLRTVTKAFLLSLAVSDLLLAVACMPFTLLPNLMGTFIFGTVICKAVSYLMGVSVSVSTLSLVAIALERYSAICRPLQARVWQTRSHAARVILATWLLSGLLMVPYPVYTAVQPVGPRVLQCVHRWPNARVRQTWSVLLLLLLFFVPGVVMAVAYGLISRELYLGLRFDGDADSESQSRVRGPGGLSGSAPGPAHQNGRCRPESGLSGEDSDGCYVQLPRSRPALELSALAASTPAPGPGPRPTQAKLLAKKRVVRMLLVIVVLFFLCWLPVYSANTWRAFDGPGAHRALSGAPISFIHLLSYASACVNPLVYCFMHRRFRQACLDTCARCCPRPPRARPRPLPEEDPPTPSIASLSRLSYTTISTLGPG
Method: The method used for gastrin binding to guinea pig stomach mucosal membranes was similar to that described by Takeuchi, Speir and Johnson (Am. J. Physiol. 237(3): E284-E294, 1979). Guinea pig stomach […] was obtained from male Hartley guinea pigs, 300-350 g, and the mucosa was scraped off with a glass The mucosa was homogenized in 50 mM Tris buffer, pH 7.4, containing 1 mM phenylmethanesulfonyl fluoride using a Dounce glass homogenizer, and the suspension was centrifuged at 40,000 g for 10 min. The resulting pellet was resuspended and centrifuged once more, the final pellet was then suspended in 100 ml assay buffer per 1 guinea pig stomach to give a protein concentration of 200-300 μg/200 μl. The assay buffer consisted of 50 mM Tris buffer, pH 7.4, 5 mM MgC2, 0.14 mg/ml bacitracin, and 1 μg/ml each of leupeptin, chymostatin, aprotinin and pepstatin. Reagent volumes for the assay were the same as those used for CCK binding to brain membranes. The radioactive ligand was 20 pM ^125 I-gastrin I, from DuPont NEN (NEX-176). The samples were incubated 3 hours at room temperature and filtered and counted as described for CCK binding to brain membranes. Compound samples were prepared and IC-50 values were determined as described for the CCK-brain receptor binding. Non-specific binding was determined using 100 nM gastrin I (human synthetic from Sigma Chemical Co.).

[2] = target: T2, Brain CCK receptor (Mus musculus, UniProt P56481); assay: Brain CCK receptor binding (mouse brain membranes, 125I-CCK-8 sulfate); conditions: mouse brain membranes; Mean ± SEM, n = 3; values without SEM n = 1; read-out: Brain IC50
T2 construct: from tissue; host or cells: forebrain membranes of male CF-1 mice
T2 sequence (P56481 1-453): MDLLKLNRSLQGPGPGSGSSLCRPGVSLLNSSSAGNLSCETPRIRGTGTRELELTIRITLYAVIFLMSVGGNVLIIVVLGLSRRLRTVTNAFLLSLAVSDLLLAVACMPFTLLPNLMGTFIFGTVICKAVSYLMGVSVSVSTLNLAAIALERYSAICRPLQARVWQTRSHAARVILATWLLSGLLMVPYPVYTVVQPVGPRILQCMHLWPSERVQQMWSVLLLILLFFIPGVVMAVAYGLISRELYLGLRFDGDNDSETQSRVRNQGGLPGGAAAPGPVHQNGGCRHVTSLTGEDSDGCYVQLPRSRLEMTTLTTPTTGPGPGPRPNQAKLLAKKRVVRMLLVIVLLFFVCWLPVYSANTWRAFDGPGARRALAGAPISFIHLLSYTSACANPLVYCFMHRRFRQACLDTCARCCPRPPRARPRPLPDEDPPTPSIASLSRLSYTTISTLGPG
Method: Brain CCK receptor binding was performed using mouse brain membranes according to the method of Chang and Lotti (Proc. Natl. Acad. Sci. 83: 4923-4926, 1986). Male CF-1 mice, 23-25 g were sacrificed by cervical dislocation, the forebrain removed and placed in ice cold 50 mM Tris buffer, pH 7.4. The tissue was homogenized in 100 volumes of the Tris buffer with a Brinkman Polytron or Tekmar Tissumizer and then centrifuged at 40,000 g for 10 min. Pellets were resuspended in Tris buffer, centrifuged as above and then resuspended in 100 volumes of assay buffer, pH 6.5 (20 mM N-2-hydroxyethyl-piperazine-N'-2-ethane sulfonic acid (HEPES), 1 mM ethylene glycol bis(2-aminoethyl ether-N,N,N',N'-tetraaceticacid) (EGTA), 5 mM MgCl2, 130 mM NaCl, and 0.25 mg/ml bacitracin). The binding assay consisted of 50 μL of compound (or buffer for total binding), 50 μL of ^125 I-CCK-8 sulfate (20 pM) (Amersham IM-159), 200 μL of assay buffer and 200 μL of homogenate (80-120 μg protein). The samples were incubated at room temperature (25°) for 2 hours, and they were then filtered through GF/B glass fiber filters (soaked in wash buffer for 2 hours before use) using a 48 well Brandel cell harvester designed for receptor binding. The filters were washed twice with 3 ml of 50 mM Tris buffer, pH 7.4, containing 0.01% BSA and then counted for radioactivity in plastic tubes with a Micromedic 10/600 automatic gamma counter.
Compounds were dissolved in dimethyl sulfoxide (DMSO) at a concentration of 10 mM and then further diluted with assay buffer. […] IC-50 values of displacement curves were determined using 7 concentrations of compound and were calculated using the ALLFIT computer program of DeLean, Munson and Rodbard (Am. J. Physiol. 235: E97-E102, 1978). Non-specific binding was determined as the displacement of the radioligand by 100 nM CCK-8 sulfate.

[3] = target: T3, peripheral type CCK receptors in rat pancreas (Rattus norvegicus, UniProt P30551); assay: Binding to peripheral type CCK receptors in rat pancreas (3H-L364,718); conditions: rat pancreas; 10 μM; read-out: Pancreas % inhibition in binding assay
T3 construct: from tissue; host or cells: pancreas membranes of male Sprague-Dawley rats
T3 sequence (P30551 1-444): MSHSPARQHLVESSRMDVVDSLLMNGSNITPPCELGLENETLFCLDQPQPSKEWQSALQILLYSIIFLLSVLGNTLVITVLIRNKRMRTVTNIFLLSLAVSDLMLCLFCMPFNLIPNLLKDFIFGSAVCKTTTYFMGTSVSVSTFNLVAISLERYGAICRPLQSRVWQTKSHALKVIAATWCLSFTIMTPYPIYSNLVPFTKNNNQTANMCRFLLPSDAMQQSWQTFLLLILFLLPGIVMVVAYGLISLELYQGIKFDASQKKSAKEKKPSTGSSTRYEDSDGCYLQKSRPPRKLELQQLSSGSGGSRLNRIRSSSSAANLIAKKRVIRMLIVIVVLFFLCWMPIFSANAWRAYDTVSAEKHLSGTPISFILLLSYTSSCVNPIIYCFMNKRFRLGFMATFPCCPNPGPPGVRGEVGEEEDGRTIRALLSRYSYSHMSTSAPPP
Method: Binding to peripheral type CCK receptors in rat pancreas was done according to the method of Chang et al. (Mol. Pharmacol. 30: 212-217, 1986) using ^3 H-L364, 718. Pancreas was obtained from male & Sprague-Dawley rats, 150-200 g, after decapitation, and dissected free from adipose and connective tissue. The tissue was homogenized in 30 volumes of 50 mM Tris buffer, pH 7.4 and centrifuged at 40,000 g for 10 min. The tissue pellet was washed by resuspension and centrifugation as described above. The final pellet was suspended in 500 volumes of assay buffer (50 mM Tris buffer, pH 7.4, 5 mM MgC2, 0.14 mg/ml bacitracin, and 5 mM dithiothreitol) to give a protein concentration of 30-60 μg/200 μl. Reagent volumes for the assay were the same as those used for CCK binding to brain membranes. […] The samples were incubated 1 hour at room temperature and then filtered as described for the CCK-brain receptor. Scintillation cocktail was added to the filters which were counted for radioactivity using a Micromedic Taurus automatic liquid scintillation counter.
Compound samples were prepared and IC-50 values were determined as described for the CCK-brain experiments. Non-specific binding was that amount left bound to the filters after adding 100 nM L-364,718.

Row | IC50 [1] | IC50 [2] | inhibition at 10 µM [3] | SMILES
1 | 1600 ± 100 nM | 100 ± 10 nM |  | CCc1cccc(-n2c(CC(C)c3c[nH]c4ccc(Br)cc34)nc3ccccc3c2=O)c1 (centres unmarked) [Example 64]
2 | 1100 ± 200 nM | 46 ± 10 nM | -4.5% | CCc1cccc(-n2c(CCc3c[nH]c4ccc(Br)cc34)nc3ccccc3c2=O)c1 [Example 29]
